Read-outs that look alike come from different tables or passages of the source. Marks after values point to notes of the source that are not given here.
What was measured:
GluN1/GluN2B-N615I = GluN1/GluN2B-N615I (Homo sapiens, UniProt Q05586+Q13224, N615I); assay: TEVC current recordings from Xenopus oocytes, channel blocker inhibition; type: cell-based; settings: for % inhibition: 2B-N615I, 100 μM blocker, −40 mV; for IC50: IC50, 2B-N615I, holding −40 mV
GluN1/GluN2A-L611Q [1] = molecular target: T1, GluN1/GluN2A-L611Q (Homo sapiens, UniProt Q05586+Q12879, L611Q); assay: Current-voltage curves; settings: 2A-L611Q
WT GluN1/GluN2A = WT GluN1/GluN2A (Homo sapiens, UniProt Q05586+Q12879); assay: TEVC current recordings from Xenopus oocytes, channel blocker inhibition; type: cell-based; settings: for IC50: IC50, WT GluN1/WT 2A, holding −40 mV; for % inhibition: WT GluN1/WT 2A, 100 μM blocker, −40 mV
[2] = molecular target: GluN2B-N616K-containing NMDARs (Homo sapiens, UniProt Q05586+Q13224, N616K); assay: as above; type: cell-based; settings: for % inhibition: 2B-N616K, 100 μM blocker, −40 mV; for IC50: IC50, 2B-N616K, holding −40 mV
[3] = molecular target: GluN2A-N615K-containing NMDARs (Homo sapiens, UniProt Q05586+Q12879, N615K); assay: as above; type: cell-based; settings: for % inhibition: 2A-N615K, 100 μM blocker, −40 mV; for IC50: IC50, 2A-N615K, holding −40 mV
[4] = molecular target: GluN2B-V618G-containing NMDARs (Homo sapiens, UniProt Q05586+Q13224, V618G); assay: as above; type: cell-based; settings: for % inhibition: 2B-V618G, 100 μM blocker, −40 mV; for IC50: IC50, 2B-V618G, holding −40 mV
GluN1-G620R/GluN2A = GluN1-G620R/GluN2A (Homo sapiens, UniProt Q05586+Q12879, G620R); assay: as above; type: cell-based; settings: for % inhibition: 1-G620R/2A, 100 μM blocker, −40 mV; for IC50: IC50, 1-G620R/2A, holding −40 mV
[5] = molecular target: GluN2A-N614S-containing NMDARs (Homo sapiens, UniProt Q05586+Q12879, N614S); assay: as above; type: cell-based; settings: for % inhibition: 2A-N614S, 100 μM blocker, −40 mV; for IC50: IC50, 2A-N614S, holding −40 mV
WT GluN1/GluN2B = WT GluN1/GluN2B (Homo sapiens, UniProt Q05586+Q13224); assay: as above; type: cell-based; settings: for IC50: IC50, WT GluN1/WT 2B, holding −40 mV; for % inhibition: WT GluN1/WT 2B, 100 μM blocker, −40 mV
GluN1/GluN2A-L611Q [6] = molecular target: T1, GluN1/GluN2A-L611Q; assay: as above; type: cell-based; settings: for % inhibition: 2A-L611Q, 100 μM blocker, −40 mV; for IC50: IC50, 2A-L611Q, holding −40 mV
[7] = molecular target: GluN2B-W607C-containing NMDARs (Homo sapiens, UniProt Q05586+Q13224, W607C); assay: as above; type: cell-based; settings: for % inhibition: 2B-W607C, 100 μM blocker, −40 mV; for IC50: IC50, 2B-W607C, holding −40 mV
[8] = molecular target: GluN2B-G611V-containing NMDARs (Homo sapiens, UniProt Q05586+Q13224, G611V); assay: as above; type: cell-based; settings: for % inhibition: 2B-G611V, 100 μM blocker, −40 mV; for IC50: IC50, 2B-G611V, holding −40 mV
[9] = molecular target: GluN2B-V620M-containing NMDARs (Homo sapiens, UniProt Q05586+Q13224, V620M); assay: as above; type: cell-based; settings: for % inhibition: 2B-V620M, 100 μM blocker, −40 mV; for IC50: IC50, 2B-V620M, holding −40 mV
GluN1/GluN2B-N615K = GluN1/GluN2B-N615K (Homo sapiens, UniProt Q05586+Q13224, N615K); assay: as above; type: cell-based; settings: for % inhibition: 100 μM blocker, −40 mV

## CNC1(c2ccccc2Cl)CCCCC1=O (stereo not shown) [ketamine]
GluN1/GluN2B-N615I; w/ 1 mM Mg^2+
  % inhibition: 94 ± 1.8% (8)^¥
  IC50: 0.76 µM
GluN1/GluN2B-N615I; w/o Mg^2+
  % inhibition: 89 ± 1.9 (10) %
  IC50: 0.51 µM
GluN1/GluN2B-N615I; GluN2B-N615I, absence of Mg^2+
  enhanced potency in comparison to WT NMDARs: 8.1 fold
GluN1/GluN2A-L611Q [1]; 1 mM Mg^2+ + 0.3 μM ketamine
  z δ (apparent, combined block): 1.14
GluN1/GluN2A-L611Q [1]; 1 mM Mg^2+ + 1.0 μM ketamine
  z δ (apparent, combined block): 1.02
GluN1/GluN2A-L611Q [1]; 1 mM Mg^2+ + 3.0 μM ketamine
  z δ (apparent, combined block): 1.01
GluN1/GluN2A-L611Q [1]; 1 mM Mg^2+ + 10 μM ketamine
  z δ (apparent, combined block): 0.84
GluN1/GluN2A-L611Q [1]; 1 mM Mg^2+ + 30 μM ketamine, zδ was fixed to 0.80 for this condition
  z δ (apparent, combined block): 0.80 ^*
GluN1/GluN2A-L611Q [1]; 1 mM Mg^2+ + 100 μM ketamine
  z δ (apparent, combined block): 0.80
WT GluN1/GluN2A; w/ 1 mM Mg^2+
  IC50: 17 µM
  % inhibition: 79 ± 2.4% (24)
WT GluN1/GluN2A; w/o Mg^2+
  IC50: 5.5 µM
  % inhibition: 92 ± 1.1% (25)
[2]; w/ 1 mM Mg^2+
  % inhibition: 93 ± 1.3% (13)^¥
  IC50: 2.5 µM
[2]; w/o Mg^2+
  % inhibition: 91 ± 2.7% (8)
  IC50: 2.3 µM
[2]; GluN2B-N616K, absence of Mg^2+
  enhanced potency in comparison to WT NMDARs: 1.8 fold
[3]; w/ 1 mM Mg^2+
  % inhibition: 92 ± 3.3% (7)^¥
  IC50: 1.6 µM
[3]; w/o Mg^2+
  % inhibition: 93 ± 1.5% (18)
  IC50: 4.3 µM
[3]; printed GluN2A-N616K
  increased potency in 1 mM Mg^2+ compared to the same variant in the absence of Mg^2+: 2.7 fold
[4]; w/ 1 mM Mg^2+
  % inhibition: 81 ± 2.1% (8)
  IC50: 24 µM
[4]; w/o Mg^2+
  % inhibition: 77 ± 3.0% (8)^¥
  IC50: 18 µM
[4]; GluN2B-V618G, absence of Mg^2+
  reduced potency (less potent) vs WT: ~ 3 fold
GluN1-G620R/GluN2A; w/ 1 mM Mg^2+
  % inhibition: 97 ± 0.6 (7)^¥ %
  IC50: 1 µM
GluN1-G620R/GluN2A; w/o Mg^2+
  % inhibition: 95 ± 1.8 (12) %
  IC50: 2.5 µM
GluN1-G620R/GluN2A; GluN1-G620R
  increased potency in 1 mM Mg^2+ compared to the same variant in the absence of Mg^2+: 2.5 fold
GluN1-G620R/GluN2A; GluN1-G620R, absence of Mg^2+
  enhanced potency in comparison to WT NMDARs: 2.2 fold
[5]; w/ 1 mM Mg^2+
  % inhibition: 77 ± 4.1% (9)
  IC50: 31 µM
[5]; w/o Mg^2+
  % inhibition: 78 ± 3.0% (12)^¥
  IC50: 29 µM
[5]; GluN2A-N614S, absence of Mg^2+
  reduced potency (less potent) vs WT: ~ 3 fold
WT GluN1/GluN2B; w/ 1 mM Mg^2+
  IC50: 14 µM
  % inhibition: 86 ± 1.0% (12)
WT GluN1/GluN2B; w/o Mg^2+
  IC50: 4.2 µM
  % inhibition: 95 ± 1.0% (13)
GluN1/GluN2A-L611Q [6]; w/ 1 mM Mg^2+
  % inhibition: 93 ± 2.1% (10) ^*^¥
  IC50: 4 µM
GluN1/GluN2A-L611Q [6]; w/o Mg^2+
  % inhibition: 87 ± 1.5% (17)
  IC50: 7.2 µM
GluN1/GluN2A-L611Q [6]; GluN2A-L611Q
  increased potency in 1 mM Mg^2+ compared to the same variant in the absence of Mg^2+: 1.8 fold
[7]; w/ 1 mM Mg^2+
  % inhibition: 89 ± 2.8% (9)
  IC50: 11 µM
[7]; w/o Mg^2+
  % inhibition: 80 ± 3.6% (12)^¥
  IC50: 16 µM
[7]; GluN2B-W607C, absence of Mg^2+
  reduced potency (less potent) vs WT: ~ 3 fold
[8]; w/ 1 mM Mg^2+
  % inhibition: 88 ± 1.6% (16)
  IC50: 8 µM
[8]; w/o Mg^2+
  % inhibition: 92 ± 2.6% (7)
  IC50: 3.1 µM
[8]; GluN2B-G611V
  reduced potency in 1 mM Mg^2+ vs absence of Mg^2+: 2.6 fold
[9]; w/ 1 mM Mg^2+
  % inhibition: 91 ± 2.8% (8)
  IC50: 7 µM
[9]; w/o Mg^2+
  % inhibition: 93 ± 1.0% (10)
  IC50: 3.4 µM
[9]; GluN2B-V620M
  reduced potency in 1 mM Mg^2+ vs absence of Mg^2+: 2.1 fold
GluN1/GluN2B-N615K
  IC50: > 100 µM
GluN1/GluN2B-N615K; 2B-N615K, w/ 1 mM Mg^2+
  % inhibition: 6.5 ± 1.5% (16) ^*^¥
GluN1/GluN2B-N615K; 2B-N615K, w/o Mg^2+
  % inhibition: 22 ± 3.8 (15)^¥ %
GluN1/GluN2B-N615K; 2B-N615K, w/ 1 mM Mg^2+, holding −40 mV
  IC50: > 100 µM
GluN1/GluN2B-N615K; GluN2B-N615K, presence of 1 mM Mg^2+
  reduced potency compared to the WT receptors: over 5.9 fold
